Source: publication PMC10580319, “Quantitative Imaging of the Action of vCPP2319, an Antimicrobial Peptide from a Viral Scaffold, against Staphylococcus aureus Biofilms of a Clinical Isolate” (ACS Infectious Diseases, 2023)
Where no end group is shown, it is not given here.

What was measured:
[1] = tested on: S. aureus ATCC 6538 biofilms; assay: Crystal violet binding assay, biofilm biomass; format: cell-based, Staphylococcus aureus; details: 24 h-preformed biofilms, treatment for 4 or 24 h
Procedure: The effect of vCPP2319 on 24 h-preformed S. aureus biofilms was evaluated using three distinct methods, as previously described:[24] the metabolic activity and viability of biofilm-embedded cells was determined using a resazurin reduction fluorometric assay and a colony count assay, respectively. The total biofilm biomass was quantified by using a crystal violet assay.
Crystal violet is a basic dye that binds to negatively charged molecules, such as those in biofilms EPS matrix and on bacterial membrane surface.[51]S. aureus suspensions at 1 × 10^6 CFU/mL were incubated in a 96-well microtiter clear flat-bottomed polystyrene plate (Corning) for 24 h at 37 °C. […] (EC 3.2.1.1), ranging from 0.0078 to 0.5 mg/mL, for 4 h at 37 °C. Untreated biofilms were used as a control. Biofilms were washed twice with MHB and incubated with 0.25% (v/v in sterile Milli-Q water) crystal violet (Sigma-Aldrich) for 30 min at room temperature. After each sample was washed three times with MHB, crystal violet was solubilized with 95% (v/v) ethanol (Carlo Erba Reagents S.A.S., France) by repeated pipetting. Biofilm biomass was quantified by measuring the absorbance at 590 nm of each sample in an infinite M200 microplate reader (Tecan). The percentage of crystal violet staining was determined relative to the control after blank (0.25% (v/v) crystal violet in sterile Milli-Q water) correction.

HMEC-1 cells = assay: Cytotoxicity, CellTiter-Blue cell viability assay; format: cell-based, human; details: 24 h incubation
Procedure: Human dermal microvascular endothelium cells (HMEC-1, ATCC CRL-3243) (ATCC, Manassas, VA, USA) were cultured as a monolayer using MCDB-131 medium (without L-glutamine) with phenol red (Gibco, Thermo-Fisher, Waltham, MA, USA). The medium was supplemented with 10% (v/v) fetal bovine serum (FBS), 1% (v/v) penicillin/streptomycin (Gibco, Thermo-Fisher), 10 ng/mL epidermal growth factor (EGF), 1 μg/mL hydrocortisone (Sigma-Aldrich, St. Louis, MO, USA), and 10 mM glutamine (ATCC), according to the manufacturer’s instructions. Cells were grown in a humidified atmosphere of 5% CO2 at 37 °C. The cytotoxicity of vCPP2319 toward HMEC-1 cells was determined using CellTiter-Blue Cell Viability Assay (Promega, USA), according to the manufacturer’s instructions. HMEC-1 cells were seeded into a sterile 96-well clear flat-bottomed polystyrene plate (Corning) at 2.5 × 10^4 cells/well and incubated for 24 h at 37 °C. After medium removal, cells were washed twice with PBS. […] The fluorescence intensity was measured with excitation and emission at 560 and 590 nm, respectively, using the infinite M200 microplate reader (Tecan). […] HMEC-1 cells metabolic activity (%) was determined using the following equation: [drawing 2] 2 where FP is the fluorescence intensity of peptide-treated cells, FNC is the fluorescence intensity of negative controls, and FPC is the fluorescence intensity of positive controls. […]

[2] = tested on: S. aureus clinical isolate biofilms; assay: CLSM assay, SYTO 9 / WGA Alexa Fluor 633, polysaccharide density and mass, biofilm height; format: cell-based, Staphylococcus aureus; details: fold variation relative to untreated biofilm, 0.13 mg/mL α-amylase, 25 μM vCPP2319, 4 h each
Procedure: (EC 3.2.1.1) on the EPS matrix of S. aureus biofilms was evaluated using a CLSM-based assay. Briefly, the bacterial cells and the matrix components of S. aureus biofilms were imaged using SYTO 9 and Wheat Germ Agglutinin (WGA) Alexa Fluor 633 Conjugate (Invitrogen, Carlsbad, CA, USA). Preformed biofilms (see above) were washed once with PBS and stained with 3 μM SYTO 9 and 5 μg/mL WGA Alexa Fluor 633, for 15 min at room temperature.
SYTO 9 was excited using the Argon laser (488 nm), and both TO-PRO-3 iodide and WGA Alexa Fluor 633 were excited with the Helium–Neon laser (633 nm), respectively. Image acquisition was performed on a Zeiss LSM 710 confocal laser point-scanning inverted microscope (Carl Zeiss MicroImaging, Oberkochen, Germany) equipped with a Plan-Apochromat DIC 63× oil immersion objective (1.40 numerical aperture). For each experiment, three different areas were imaged. All images were analyzed with the image processor Fiji.[54] TO-PRO-3 mean fluorescence intensity over the image was quantified from the xy plane of an inner layer (z = 2 μm, z being the distance from the surface of the glass slide) using Fiji’s incorporated plug-ins.[54] WGA mean fluorescence intensity over the image was quantified from the xy plane of an inner layer (z = 2 μm, z being the distance from the surface of the glass slide) and also from a z-projection of the sum of the z-stack slices, using Fiji’s incorporated plug-ins.[54] Biofilm height was determined from the xz orthogonal images using ZEN lite software (Carl Zeiss MicroImaging).
The mean emission fluorescence intensity of WGA integrated over a plane xy at a specific depth, z, If,WGA,xy, is proportional to the mass of polysaccharides in that plane.

Substance: WRRRYRRWRRRRRWRRRPRR-NH2 [vCPP2319]
- effect on biofilm biomass [1]: no significant changes
- effect on metabolic activity of HMEC-1 cells (HMEC-1 cells; 50 μM, highest concentration tested): slight effect
- effect on metabolic activity of HMEC-1 cells (HMEC-1 cells; concentrations of up to 25 μM): no effect
- ρi/ρcontrol (polysaccharides) eq 4 ([2]; WGA fluorescence at z = 2 μm): 0.7
- mi/mcontrol (polysaccharides) eq 5 ([2]; integrated WGA fluorescence over total biofilm): 0.5
- ρi/ρcontrol (polysaccharides) eq 6 ([2]; integrated WGA fluorescence over zz divided by biofilm height): 0.8
